In US11267826B2, “Penicillin-binding protein inhibitors” (priority 2017, dated 2022):

Columns and labels:
[1] = tested on: E. coli K12 PBP1a/b; experiment: Bocillin FL competition binding assay, PBP1a/1b combined; design: species or system Escherichia coli K12; conditions: 15 min pre-incubation, PBP 1a/1b combined
Summary of the method: (§1)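 E. coli K12 membrane extracts (100 µg protein) pre-incubated 15 min with compound (0.005–2,480 µg/mL) in pH 7 phosphate/350 mM NaCl, then labelled with Bocillin FL 30 min at 35°C; SDS-PAGE fluorescence (ex 450/em 520 nm), μg/mL reported. PBP1a/1b unresolved, reported combined.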

[2] = molecular target: T1, E. coli PBP2 (Escherichia coli, UniProt P0AD65); experiment: Bocillin FL competition binding assay, PBP2; design: species or system Escherichia coli K12; conditions: 15 min pre-incubation
T1 construct: 100 μg's of total membrane protein extracts containing PBPs; endogenous in cells; host or cells: Escherichia coli K12, membrane protein fraction
T1 sequence (P0AD65 whole entry): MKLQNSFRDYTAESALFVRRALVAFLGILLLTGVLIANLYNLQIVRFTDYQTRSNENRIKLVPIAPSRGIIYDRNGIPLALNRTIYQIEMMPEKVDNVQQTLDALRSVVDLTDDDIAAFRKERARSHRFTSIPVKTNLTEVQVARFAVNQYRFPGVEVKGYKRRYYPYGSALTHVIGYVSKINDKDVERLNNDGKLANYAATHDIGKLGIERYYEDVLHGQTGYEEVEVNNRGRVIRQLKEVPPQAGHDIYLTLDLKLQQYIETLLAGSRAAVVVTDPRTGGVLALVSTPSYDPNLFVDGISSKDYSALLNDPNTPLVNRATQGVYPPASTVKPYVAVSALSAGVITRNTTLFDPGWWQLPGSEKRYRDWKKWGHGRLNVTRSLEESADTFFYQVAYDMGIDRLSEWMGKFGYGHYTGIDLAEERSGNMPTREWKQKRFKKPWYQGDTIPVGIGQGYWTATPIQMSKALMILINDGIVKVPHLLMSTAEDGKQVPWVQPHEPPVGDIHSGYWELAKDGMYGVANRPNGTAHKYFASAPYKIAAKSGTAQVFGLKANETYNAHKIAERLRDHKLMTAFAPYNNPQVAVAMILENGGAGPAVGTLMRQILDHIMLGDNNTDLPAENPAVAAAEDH
Summary of the method: as §1

[3] = molecular target: T2, E. coli PBP3 (Escherichia coli, UniProt P0AD68); experiment: Bocillin FL competition binding assay, PBP3; design: species or system Escherichia coli K12; conditions: 15 min pre-incubation
T2 construct: 100 μg's of total membrane protein extracts containing PBPs; endogenous in cells; host or cells: Escherichia coli K12, membrane protein fraction
T2 sequence (P0AD68 1-577): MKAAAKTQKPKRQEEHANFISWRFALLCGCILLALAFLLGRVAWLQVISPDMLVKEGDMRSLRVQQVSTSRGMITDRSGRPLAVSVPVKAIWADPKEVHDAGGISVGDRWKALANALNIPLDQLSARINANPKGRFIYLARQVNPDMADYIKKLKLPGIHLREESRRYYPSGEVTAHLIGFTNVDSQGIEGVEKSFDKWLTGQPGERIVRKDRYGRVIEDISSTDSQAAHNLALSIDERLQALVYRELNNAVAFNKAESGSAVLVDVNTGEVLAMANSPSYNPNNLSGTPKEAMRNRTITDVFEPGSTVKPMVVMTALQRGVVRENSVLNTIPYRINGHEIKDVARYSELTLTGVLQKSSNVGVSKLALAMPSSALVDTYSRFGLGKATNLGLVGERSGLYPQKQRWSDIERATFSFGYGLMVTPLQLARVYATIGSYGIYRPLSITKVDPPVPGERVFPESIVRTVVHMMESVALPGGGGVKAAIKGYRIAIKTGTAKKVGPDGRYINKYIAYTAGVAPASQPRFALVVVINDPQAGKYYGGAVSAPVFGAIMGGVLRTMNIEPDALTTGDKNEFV
Summary of the method: as §1

[4] = tested on: S. aureus ATCC 29213; experiment: Broth microdilution MIC assay, S. aureus; assay type: cell-based; conditions: Staphylococcus aureus, ATCC29213; broth microdilution, 16-20 hours at 37° C.; read-out: S. aureus 29213 MIC
Summary of the method: (§2)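 Two-fold serial dilutions tested per CLSI in cation-supplemented Mueller-Hinton broth against S. aureus ATCC 29213 and hyper-permeable E. coli 901C; inoculum 5×10^5 CFU/mL from 3-5 h log-phase culture. Incubated 16-20 h at 37° C; MIC read visually as lowest concentration with no growth.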

[5] = tested on: hyper-permeable E. coli 901C; experiment: Broth microdilution MIC assay, hyper-permeable E. coli; assay type: cell-based; conditions: Escherichia coli, read-out: E. coli 901C MIC
Summary of the method: as §2

[6] = molecular target: T3, E. coli K12 PBP1b (Escherichia coli, UniProt P02919); experiment: Competition binding assay using Bodipy-FL boronic acid probe (Example 125); conditions: Bodipy-FL boronic acid probe (Example 125) 30 μM, 10 minutes pre-incubation, 10 minutes reaction
T3 construct: endogenous in cells; host or cells: Escherichia coli K12, membrane protein fraction
T3 sequence (P02919 whole entry): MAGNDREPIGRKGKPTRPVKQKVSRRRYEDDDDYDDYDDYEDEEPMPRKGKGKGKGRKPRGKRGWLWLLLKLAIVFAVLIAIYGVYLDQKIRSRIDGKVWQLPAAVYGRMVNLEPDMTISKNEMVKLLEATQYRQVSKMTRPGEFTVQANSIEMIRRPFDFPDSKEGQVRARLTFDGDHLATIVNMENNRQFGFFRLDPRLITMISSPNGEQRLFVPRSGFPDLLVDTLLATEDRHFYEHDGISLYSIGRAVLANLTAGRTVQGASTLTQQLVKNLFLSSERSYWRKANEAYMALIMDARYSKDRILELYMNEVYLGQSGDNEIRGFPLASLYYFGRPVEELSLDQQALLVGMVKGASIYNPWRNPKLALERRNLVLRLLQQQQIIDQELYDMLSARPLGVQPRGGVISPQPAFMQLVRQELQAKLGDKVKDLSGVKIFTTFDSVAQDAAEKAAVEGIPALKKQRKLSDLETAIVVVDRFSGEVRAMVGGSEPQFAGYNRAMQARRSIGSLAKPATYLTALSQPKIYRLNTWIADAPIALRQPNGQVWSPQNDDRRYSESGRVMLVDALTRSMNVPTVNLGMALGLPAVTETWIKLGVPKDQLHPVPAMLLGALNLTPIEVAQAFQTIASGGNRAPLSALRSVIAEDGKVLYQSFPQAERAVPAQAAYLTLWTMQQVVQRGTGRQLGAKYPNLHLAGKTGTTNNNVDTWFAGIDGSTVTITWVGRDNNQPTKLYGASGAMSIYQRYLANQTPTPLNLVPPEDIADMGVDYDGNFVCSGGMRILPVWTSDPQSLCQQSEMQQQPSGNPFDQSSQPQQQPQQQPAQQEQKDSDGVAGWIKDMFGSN
Method: Penicillin binding proteins were isolated from Escherichia coli K12 by growth of Escherichia coli K12 from a single colony in 4 L of Luria-Bertani (LB) broth at 35° C. and 250 rpm to an OD600 nm of 0.5. The cells were harvested by centrifugation at 7,000×g for 10 min. at 4° C. Cells were resuspended and washed in 50 mM potassium phosphate pH 7.5. The cells were re-suspended in sonication buffer [50 mM Tris-HCl pH 7.5, 1 mM MgCl2, 1 mM beta-mercaptoethanol, and 5 μg/mL DNAse I] and sonicated by 4 passes of 30 seconds at 45 W on ice. The sample was clarified by centrifugation at 3,000×g to remove cell debris and unbroken cells and supernatant containing the membrane proteins was retained. The membrane proteins including the PBPs were further purified from soluble constituents by an ultracentrifugation step at 100,000×g for 30 min. at 4° C. The membrane proteins are washed twice with 10 mM sodium phosphate pH 7, resuspended in a volume of 5 mL, quantitated by BCA assay, adjusted to […] and frozen at −80° C. until use.
The adapted Bocillin FL competition binding method described herein incorporates a 15 min. pre-incubation of test compound with isolated PBPs to attempt to balance the difference in mechanism of inhibition between beta-lactams (largely irreversible covalent bond to active site Serine) and the boron-containing PBP inhibitor test compounds (reversible covalent bond to active site Serine). Briefly, 50 μL reactions consisted of 100 μg's of total membrane protein extracts containing PBPs incubated with a dilution series of test compound ranging from 0.005 μg/mL to 2,480 μg/mL in 10 mM sodium phosphate pH7 containing 350 mM NaCl. Thirty minute reactions at 35° C. were initiated by addition of […] Bocillin FL, quenched by addition of SDS-PAGE loading buffer containing sodium dodecyl sulfate (SDS) and heated for 15 minutes at 95° C. to denature proteins in preparation for SDS-polyacrylamide gel electrophoresis. The Bocillin FL labeled PBPs are then separated by SDS-PAGE in Novex NuPage 10% Bis-Tris pre-cast gels (Invitrogen). The SDS-PAGE gel, post-electrophoresis, is then washed in water to remove excess SDS for 10 minutes at room temperature and placed on the scanning bed of a GE Healthcare/Amersham Biosciences Storm 860 fluorescence scanner. The excitation wavelength is in the blue spectrum at 450 nm and the emission at 520 nm is captured by the instrument. Effective PBP inhibitors are detected by a reduction in Bocillin FL labeling of the particular PBP over the dose range of test compound in a dose-responsive manner. High molecular weight PBP 1a/1b are not resolved by these gels, thus we report HMW PBP binding results in μg/mL for PBPs 1a/1b combined as well as for PBP2 and PBP3.
To determine the ability of boronic acid-based test PBP inhibitors to bind Penicillin Binding Proteins (PBPs), a competition binding assay using a Bodipy-FL-labeled boronic acid PBP inhibitor (Example 125) was adapted from the classical method used to assess PBP potency of beta-lactams using Bocillin-FL (fluorescently-labeled penicillin V). The method is identical to that described in Example I for the Bocillin-FL competition binding assay with the following exceptions, the Bodipy-FL boronic acid probe (Example 125) is used at a final concentration of 30 μM, pre-incubation time of test compound with PBP enzymes is 10 minutes and reaction time is set for 10 minutes and reactions are prepared for SDS-PAGE analysis by simply adding SDS-containing loading buffer. Representative results are shown in Table 5, where A represents a potency of >1000 μg/mL, B represents a potency between 64 and 1000 μg/mL inclusive, and C represents a potency of <64 μg/mL. NT=Not Tested.

SMILES | E. coli K12 PBP1a/b Potency [1] | E. coli PBP2 Potency [2] | E. coli PBP3 Potency [3] | MIC [4] [µg/mL] | MIC [5] [µg/mL] | E. coli K12 PBP1b Potency [6]
N=C(NC1CCNCC1)c1ccc(OCCO/N=C(\C(=O)N[C@H]2Cc3cccc(C(=O)O)c3OB2O)c2csc(N)n2)cc1 [Example 47, (R,Z)-3-(2-(2-aminothiazol-4-yl)-2-((2-(4-(N-(piperidin-4-yl)carbamimidoyl)phenoxy)ethoxy)imino)acetamido)-2-hydroxy-3,4-dihydro-2H-benzo[e][1,2]oxaborinine-8-carboxylic Acid] | B (B represents a potency between 64 and 1000 μg/mL inclusive) | B (B represents a potency between 64 and 1000 μg/mL inclusive) | B (B represents a potency between 64 and 1000 μg/mL inclusive) | 64 to 128 | < 64 | B (B represents a potency between 64 and 1000 μg/mL inclusive)
CCO/N=C(\C(=O)N[C@H]1Cc2cccc(C(=O)O)c2OB1O)c1csc(N)n1 [Example 48, (R,Z)-3-(2-(2-aminothiazol-4-yl)-2-(ethoxyimino)acetamido)-2-hydroxy-3,4-dihydro-2H-benzo[e][1,2]oxaborinine-8-carboxylic Acid] | B (B represents a potency between 64 and 1000 μg/mL inclusive) | B (B represents a potency between 64 and 1000 μg/mL inclusive) | B (B represents a potency between 64 and 1000 μg/mL inclusive) | 64 to 128 | < 64 | B (B represents a potency between 64 and 1000 μg/mL inclusive)
CC(C)NC(=N)c1ccc(OCCO/N=C(\C(=O)N[C@H]2Cc3cccc(C(=O)O)c3OB2O)c2csc(N)n2)cc1 [Example 49, (R,Z)-3-(2-(2-aminothiazol-4-yl)-2-((2-(4-(N-isopropylcarbamimidoyl)phenoxy)ethoxy)imino)acetamido)-2-hydroxy-3,4-dihydro-2H-benzo[e][1,2]oxaborinine-8-carboxylic Acid] | B (B represents a potency between 64 and 1000 μg/mL inclusive) | B (B represents a potency between 64 and 1000 μg/mL inclusive) | B (B represents a potency between 64 and 1000 μg/mL inclusive) | 64 to 128 | < 64 | A (A represents a potency of >1000 μg/mL)
Nc1nc(/C(=N/OCC2CCNCC2)C(=O)N[C@H]2Cc3cccc(C(=O)O)c3OB2O)cs1 [Example 52, (R,Z)-3-(2-(2-aminothiazol-4-yl)-2-((piperidin-4-ylmethoxy)imino)acetamido)-2-hydroxy-3,4-dihydro-2H-benzo[e][1,2]oxaborinine-8-carboxylic Acid] | A (A represents a potency of >1000 μg/mL) | A (A represents a potency of >1000 μg/mL) | A (A represents a potency of >1000 μg/mL) | > 128 | < 64 | B (B represents a potency between 64 and 1000 μg/mL inclusive)
Nc1nc(/C(=N/OCC(O)CO)C(=O)N[C@H]2Cc3cccc(C(=O)O)c3OB2O)cs1 (stereo partly drawn) [Example 76, (3R)-3-((Z)-2-(2-aminothiazol-4-yl)-2-((2,3-dihydroxypropoxy)imino)acetamido)-2-hydroxy-3,4-dihydro-2H-benzo[e][1,2]oxaborinine-8-carboxylic Acid] | – | – | – | 64 to 128 | < 64 | B (B represents a potency between 64 and 1000 μg/mL inclusive)
CC(C)(O/N=C(\C(=O)N[C@H]1Cc2cc(O)cc(C(=O)O)c2OB1O)c1csc(N)n1)C(N)=O [Example 82, (R,Z)-3-(2-(((1-amino-2-methyl-1-oxopropan-2-yl)oxy)imino)-2-(2-aminothiazol-4-yl)acetamido)-2,6-dihydroxy-3,4-dihydro-2H-benzo[e][1,2]oxaborinine-8-carboxylic Acid] | – | – | – | > 128 | < 64 | B (B represents a potency between 64 and 1000 μg/mL inclusive)
Nc1nc(/C(=C/c2cccnc2)C(=O)N[C@H]2Cc3cccc(C(=O)O)c3OB2O)cs1 [Example 87, (R,Z)-3-(2-(2-aminothiazol-4-yl)-3-(pyridin-3-yl)acrylamido)-2-hydroxy-3,4-dihydro-2H-benzo[e][1,2]oxaborinine-8-carboxylic Acid] | A (A represents a potency of >1000 μg/mL) | B (B represents a potency between 64 and 1000 μg/mL inclusive) | B (B represents a potency between 64 and 1000 μg/mL inclusive) | 64 to 128 | < 64 | –
Nc1nc(/C(=C\C(=O)O)C(=O)N[C@H]2Cc3cccc(C(=O)O)c3OB2O)cs1 [Example 88, (R,E)-3-(2-(2-aminothiazol-4-yl)-3-carboxyacrylamido)-2-hydroxy-3,4-dihydro-2H-benzo[e][1,2]oxaborinine-8-carboxylic Acid] | A (A represents a potency of >1000 μg/mL) | B (B represents a potency between 64 and 1000 μg/mL inclusive) | B (B represents a potency between 64 and 1000 μg/mL inclusive) | > 128 | 64 to 128 | –
Nc1nc(/C(=C/C(=O)O)C(=O)N[C@H]2Cc3cccc(C(=O)O)c3OB2O)cs1 [Example 89, (R,Z)-3-(2-(2-aminothiazol-4-yl)-3-carboxyacrylamido)-2-hydroxy-3,4-dihydro-2H-benzo[e][1,2]oxaborinine-8-carboxylic Acid] | A (A represents a potency of >1000 μg/mL) | C (C represents a potency of <64 μg/mL) | C (C represents a potency of <64 μg/mL) | > 128 | 64 to 128 | –
Nc1nc(/C(=N/OCCF)C(=O)N[C@H]2Cc3cccc(C(=O)O)c3OB2O)cs1 [Example 113, (R,Z)-3-(2-(2-aminothiazol-4-yl)-2-((2-fluoroethoxy)imino)acetamido)-2-hydroxy-3,4-dihydro-2H-benzo[e][1,2]oxaborinine-8-carboxylic Acid] | – | – | – | 64 to 128 | < 64 | B (B represents a potency between 64 and 1000 μg/mL inclusive)
